pIC50: −log10 of the molar value. Read-outs that look alike come from different tables or passages of the source.
Tested on: cancer cell lines
Assay: Cancer cell proliferation activity (CellTiterGlo, 72 h)
Assay type: cell-based
Details: 72 h, 72 h, read-out: IC50 cell proliferation
In short: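 Readout is CellTiterGlo luminescence after 72 h compound exposure (0.1% DMSO final), started one day post-seeding, at 37 °C.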

Work on `C[C@]1(CO)O[C@@H](n2cnc3c(N)nc(F)nc32)[C@H](O)[C@@H]1O` [Cpd. No. 178, (2R,3S,4R,5R)-5-(6-amino-2-fluoro-9H-purin-9-yl)-2-(hydroxymethyl)-2-methyltetrahydrofuran-3,4-diol] yielded a pIC50 (5637 (bladder)) of 6.80, a pIC50 (CLS439 (bladder)) of 6.11 and a pIC50 (HS729 (muscle)) of 6.92. For the same molecule, the pIC50 (J82 (bladder)) was 7.10, the pIC50 (JAR (placenta)) was 7.52 and the pIC50 (MT3 (breast)) was 7.40. For the same molecule, the pIC50 (PANCI (pancreas)) was 4.83, the pIC50 (PC3 (prostate)) was 7.15 and the pIC50 (RD (muscle)) was 7.15. For the same molecule, the pIC50 (T24 (bladder)) was 7.05, the pIC50 (Homo sapiens, 22Rv1, 72 h, 22RV1 (prostate)) was 6.60 and the pIC50 (Homo sapiens, 786-0, 72 h, 786O (kidney)) was 7.15. For the same molecule, the pIC50 (Homo sapiens, A204, 72 h, A204 (muscle)) was 7.52, the pIC50 (Homo sapiens, A549, 72 h, A549 (lung)) was 6.43 and the pIC50 (Homo sapiens, A673, 72 h, A673 (bone)) was 6.44. It also gave a pIC50 (Homo sapiens, A2780, 72 h, A2780 (ovary)) of 6.82, a pIC50 (Homo sapiens, A-375, 72 h, A375 (skin)) of 7.40 and a pIC50 (Homo sapiens, A-431, 72 h, A431 (skin)) of 7.30. It also gave a pIC50 (Homo sapiens, ACHN, ACHN (kidney)) of 6.34, a pIC50 (Homo sapiens, ASPC1, 72 h, ASPC1 (pancreas)) of 7.52 and a pIC50 (Homo sapiens, BT-20, 72 h, BT20 (breast)) of 7.15. For the same molecule, the pIC50 (Homo sapiens, BXPC-3, 72 h, BXPC3 (pancreas)) was 6.28, the pIC50 (Homo sapiens, C-33-A, C33A (endometrial)) was 7.22 and the pIC50 (Homo sapiens, CAKI-1, 72 h, CAKI1 (kidney)) was 8.00. The pIC50 (Homo sapiens, COLO 205, 72 h, COLO205 (colon)) was 6.77, the pIC50 (Homo sapiens, COLO-678, 72 h, COLO678 (colon)) was 6.19 and the pIC50 (Homo sapiens, Ca-Ski, CASKI (endometrial)) was 7.40. For the same molecule, the pIC50 (Homo sapiens, Caco-2, 72 h, CACO2 (colon)) was 6.80, the pIC50 (Homo sapiens, Calu-6, 72 h, CALU6 (lung)) was 7.52 and the pIC50 (Homo sapiens, DLD-1, 72 h, DLD1 (colon)) was 6.46. It also gave a pIC50 (Homo sapiens, DU-145, 72 h, DU145 (prostate)) of 7.70, a pIC50 (Homo sapiens, EFO-21, 72 h, EFO21 (ovary)) of 7.10 and a pIC50 (Homo sapiens, EJ-28, 72 h, EJ28 (bladder)) of 7.22. For the same molecule, the pIC50 (Homo sapiens, Granta-519, 72 h, GRANTA-519 (hematological)) was 5.55, the pIC50 (Homo sapiens, HCT-15, 72 h, HCT15 (colon)) was 6.85 and the pIC50 (Homo sapiens, HCT-116, 72 h, HCT116 (colon)) was 6.80. It also gave a pIC50 (Homo sapiens, HEK293, 72 h, HEK293 (kidney)) of 7.15, a pIC50 (Homo sapiens, HL-60, 72 h, HL-60 (hematological)) of 7.40 and a pIC50 (Homo sapiens, HT-29, 72 h, HT29 (colon)) of 7.30. It also gave a pIC50 (Homo sapiens, HT-1080, 72 h, HT1080 (connective tissue)) of 5.68, a pIC50 (Homo sapiens, HeLa, HELA (endometrial)) of 7.15 and a pIC50 (Homo sapiens, HepG2, 72 h, HEPG2 (liver)) of 7.22. The pIC50 (Homo sapiens, Hs-578T, HS578T (breast)) was 7.15, the pIC50 (Homo sapiens, IGROV-1, 72 h, IGROV1 (ovary)) was 7.52 and the pIC50 (Homo sapiens, IMR-90, 72 h, IMR90 (lung)) was 7.30. It also gave a pIC50 (Homo sapiens, JEG-3, 72 h, JEG3 (placenta)) of 7.40, a pIC50 (Homo sapiens, JIMT-1, 72 h, JIMT1 (breast)) of 7.70 and a pIC50 (Homo sapiens, K562, 72 h, K-562 (hematological)) of 5.93. It also gave a pIC50 (Homo sapiens, Kasumi 1, 72 h, KASUMI-1 (hematological)) of 7.70, a pIC50 (Homo sapiens, L-363, 72 h, L-363 (hematological)) of 7.70 and a pIC50 (Homo sapiens, LoVo, LOVO (colon)) of 7.70. The pIC50 (Homo sapiens, MCF7, 72 h, MCF7 (breast)) was 5.59, the pIC50 (Homo sapiens, MDA-MB-231, 72 h, MDAMB231 (breast)) was 5.97 and the pIC50 (Homo sapiens, MDA-MB-435, 72 h, MDAMB435 (skin)) was 6.72. For the same molecule, the pIC50 (Homo sapiens, MDA-MB-436, 72 h, MDAMB436 (breast)) was 7.30, the pIC50 (Homo sapiens, MDA-MB-468, 72 h, MDAMB468 (breast)) was 7.05 and the pIC50 (Homo sapiens, MG-63, 72 h, MG63 (bone)) was 5.44. The pIC50 (Homo sapiens, MHH-ES-1, 72 h, MHHES1 (bone)) was 7.00, the pIC50 (Homo sapiens, MIA PaCa-2, 72 h, MIAPACA2 (pancreas)) was 5.14 and the pIC50 (Homo sapiens, MINO, MINO (hematological)) was 7.70. It also gave a pIC50 (Homo sapiens, MV4-11, 72 h, MV4-11 (hematological)) of 7.70, a pIC50 (Homo sapiens, NCI-H23, 72 h, NCI-H23 (lung)) of 7.22 and a pIC50 (Homo sapiens, NCI-H82, 72 h, NCIH82 (lung)) of 7.15. The pIC50 (Homo sapiens, NCI-H292, 72 h, NCIH292 (lung)) was 6.08, the pIC50 (Homo sapiens, NCI-H460, 72 h, NCIH460 (lung)) was 7.40 and the pIC50 (Homo sapiens, OVCAR-3, 72 h, OVCAR3 (ovary)) was 7.52. For the same molecule, the pIC50 (Homo sapiens, OVCAR-4, 72 h, OVCAR4 (ovary)) was 7.10, the pIC50 (Homo sapiens, PLC-PRF-5, 72 h, PLCPRF5 (liver)) was 6.35 and the pIC50 (Homo sapiens, Panc1005, 72 h, PANC1005 (pancreas)) was 7.22. For the same molecule, the pIC50 (Homo sapiens, Ramos, RAMOS (hematological)) was 6.89, the pIC50 (Homo sapiens, SAOS-2, 72 h, SAOS2 (bone)) was 7.30 and the pIC50 (Homo sapiens, SF-268, 72 h, SF268 (brain)) was 5.73. It also gave a pIC50 (Homo sapiens, SF-295, 72 h, SF295 (brain)) of 6.64, a pIC50 (Homo sapiens, SK-BR-3, 72 h, SKBR3 (breast)) of 8.00 and a pIC50 (Homo sapiens, SK-HEP1, 72 h, SKHEP1 (liver)) of 6.35. It also gave a pIC50 (Homo sapiens, SK-LMS-1, 72 h, SKLMS1 (uterus)) of 7.40, a pIC50 (Homo sapiens, SK-MEL-5, 72 h, SKMEL5 (skin; SKMELS [sic] in Table 9E)) of 6.24 and a pIC50 (Homo sapiens, SK-MEL-28, 72 h, SKMEL28 (skin)) of 7.00. It also gave a pIC50 (Homo sapiens, SK-N-AS, SKNAS (brain)) of 7.15, a pIC50 (Homo sapiens, SK-N-SH, SKNSH (brain)) of 7.52 and a pIC50 (Homo sapiens, SK-OV-3, 72 h, SKOV3 (ovary)) of 7.22. It also gave a pIC50 (Homo sapiens, SNB-75, 72 h, SNB75 (brain)) of 6.80, a pIC50 (Homo sapiens, SU-DHL10, 72 h, SU-DHL-10 (hematological)) of 6.36 and a pIC50 (Homo sapiens, SU-DHL-6, 72 h, SU-DHL-6 (hematological)) of 7.52. The pIC50 (Homo sapiens, SW-620, 72 h, SW620 (colon)) was 7.30, the pIC50 (Homo sapiens, TE-671, 72 h, TE671 (muscle)) was 6.43 and the pIC50 (Homo sapiens, THP-1, 72 h, THP-1 (hematological)) was 5.75. It also gave a pIC50 (Homo sapiens, U2OS, U20S (bone; U2OS in Table 9E)) of 7.22, a pIC50 (Homo sapiens, U-87 MG, U87MG (brain)) of 5.70 and a pIC50 (Homo sapiens, UMUC3, 72 h, UMUC3 (bladder)) of 6.01. The pIC50 (Homo sapiens, UO-31, 72 h, UO31 (kidney)) was 7.40, the pIC50 (Homo sapiens, WSU-NHL, WSU-NHL (hematological)) was 7.52 and the pIC50 (NCI-H358M, NCIH358M (lung)) was 7.15. The pIC50 (PBMC, PBMC (hematological)) was 6.49 and the pIC50 (RD-ES, RDES (bone)) was 7.52.
